From the supplement of paper PMC11061612 come the findings set out here.

Assay [1] deals with BC-1 (B-Cell Non-Hodgkin's Lymphoma). The assay can be described thus: Bliss excess, mean over the matrix (fraction); higher = more synergy. Summed up: (§1)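 After 24 hours at 37°C and 5% CO2 in 1536-well plates, cells in DMEM/F12 or RPMI plus 10% FBS received two-drug dose matrices for 72 hours. Viability came from CellTiter-Glo 2.0 luminescence and was scaled as inhibition, anchored at 0 by vehicle wells and at 1 by blank wells. Combination Emax is taken as the second-highest inhibition in the matrix, and Bliss excess as the observed combination effect less EA + EB − EA·EB, with EA and EB the single-agent effects.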

Assay [2] relates to COR-L105 (Lung Adenocarcinoma). The description is as above. The method in brief: as §1
The subject of assay [3] is GCIY (Gastric Carcinoma). The description is as above. Summed up: as §1
Assay [4] deals with GRANTA-519 (B-Cell Non-Hodgkin's Lymphoma). The assay is described as above. Summed up: as §1
Assay [5] concerns HT-144 (Melanoma). Described as above. The method in brief: as §1
The test system of assay [6] is HT-3 (Cervical Carcinoma). The assay is described as above. Summed up:
as §1

Assay [7] deals with KNS-62 (Squamous Cell Lung Carcinoma). The description is as above. The method in brief:
as §1

Assay [8] has as its system M14 (Melanoma). Described as above. The method in brief:
as §1

The subject of assay [9] is NCI-H1048 (Small Cell Lung Carcinoma). The description is as above. Summed up: as §1
Assay [10] has as its system NCI-H2009 (Lung Adenocarcinoma). Described as above. Summed up: as §1
In assay [11] the test system is NCI-H2023 (Non-Small Cell Lung Carcinoma). The assay is described as above. Summed up:
as §1

Assay [12] concerns OVKATE (Ovarian Carcinoma). Described as above. Summed up: as §1
For assay [13], the system named is SCC90 (Head and Neck Carcinoma). The description is as above. The method in brief:
as §1

In assay [14] the test system is SNU-1 (Gastric Carcinoma). The assay is described as above. The method in brief: as §1
For assay [15], the system named is TK (B-Cell Non-Hodgkin's Lymphoma). The description is as above. The method in brief: as §1
For assay [16], the system named is TOV-21G (Ovarian Carcinoma). The description is as above. Summed up: as §1
For assay [17], the system named is M14 (Melanoma). Kind of assay: combination Emax (second highest fraction inhibited in the dose matrix, 72 h); higher = more inhibition; extreme values may be limits of the assay. The method in brief:
as §1

The test system of assay [18] is A375 (Melanoma). The assay can be described thus: Bliss excess, mean over the matrix (fraction); higher = more synergy. The method in brief: as §1
For assay [19], the system named is RVH-421 (Melanoma). Described as above. Summed up:
as §1

The test system of assay [20] is RVH-421 (Melanoma). The assay can be described thus: combination Emax (second highest fraction inhibited in the dose matrix, 72 h); higher = more inhibition; extreme values may be limits of the assay. The method in brief:
as §1
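Wherever Bliss excess, mean over the matrix is given: after 72 h of two-drug dosing.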

As for `C=CCn1c(=O)c2cnc(Nc3ccc(N4CCN(C)CC4)cc3)nc2n1-c1cccc(C(C)(C)O)n1` [AZD1775] + C1CN(CCC1(C(=O)N[C@@H](CCO)C2=CC=C(C=C2)Cl)N)C3=NC=NC4=C3C=CN4 [Capivasertib] (first compound max 3 µM, partner max 3 µM), the Bliss excess in assay [1] is 0.0279; in assay [2], -0.0627; in [3] it was -0.0277; in assay [4], -0.0163; in assay [5], 0.0014; in assay [6], -0.0073. Further, the Bliss excess in assay [7] was -0.0128; in assay [8], 0.0065; in assay [9], -0.0301; in [10], -0.0011; in assay [11], -0.003; in [12] it was -0.0239. Besides, the Bliss excess in [13] was -0.0309; in [14] it was 0.0488; in assay [15], 0.0183; in assay [16], -0.0043. The “combination Emax” value in [17] worked out at 0.766.

With `Cc1cc2ncnn2cc1Nc1ncc2c(n1)n(C1CCOCC1)c(=O)n2C` [AZD7648] + CCN(CCO)CCCOc1ccc2c(Nc3cc(CC(=O)Nc4cccc(F)c4)[nH]n3)ncnc2c1 [AZD2811] (first compound max 10 µM, 7x7, partner max 1 µM), the Bliss excess was 0.0251 in [18]; 0.035 in [1]; -0.0508 in [2]; 0.0949 in assay [3]; 0.0287 in assay [4]; 0.0088 in [5]. Besides, the Bliss excess was 0.0276 in assay [6]; 0.0489 in assay [7]; -0.0197 in [9]; 0.0669 in assay [10]; -0.0238 in [11]; -0.0834 in [12]. The Bliss excess in assay [19] was -0.0193; in [13], 0.0511; in assay [14], 0.0214; in assay [15] it was 0.0132; in assay [16], 0.0183. The “combination Emax” value in assay [20] was 0.299.

`Cc1cc2ncnn2cc1Nc1ncc2c(n1)n(C1CCOCC1)c(=O)n2C` [AZD7648] + CN(C)CCCOc1ccc(-c2ccc3ncc4c(c3c2)n(C2CCOCC2)c(=O)n4C)cn1 [AZD0156] (first compound max 10 µM, 7x7, partner max 1 µM): the Bliss excess in assay [18] is 0.0165; in assay [1], 0.0465; in assay [2], -0.0369; in [3], -0.0458; in assay [4], 0.0266; in [5], 0.0013. In addition, the Bliss excess in assay [6] is 0.0226; in [7], -0.0064; in assay [9], 0.0121; in assay [10], -0.0019; in assay [11], -0.0192; in [12] it was -0.0132. The Bliss excess in assay [19] was -0.0099; in [13], 0.0055; in assay [14], 0.01; in [15], -0.0264; in [16], -0.0047. For the same compound, the “combination Emax” value in [20] amounted to 0.274.

`Cc1cc2ncnn2cc1Nc1ncc2c(n1)n(C1CCOCC1)c(=O)n2C` [AZD7648] + C[C@@H]1COCCN1C2=NC(=NC(=C2)C3(CC3)[S@](=N)(=O)C)C4=C5C=CNC5=NC=C4 [AZD6738] (first compound max 10 µM, 7x7, partner max 10 µM): the Bliss excess in [18] was 0.0301; in assay [1], -0.016; in assay [2], -0.0511; in assay [3] it was 0.0524; in [4] it was -0.0479; in assay [5], 0.0349. Further, the Bliss excess in [6] worked out at 0.0076; in [7] it was 0.0778; in assay [9], 0.0425; in assay [10], 0.0494; in assay [11], 0.0722; in [12], 0.0232. The Bliss excess in assay [19] is 0.0381; in assay [13], 0.0385; in assay [14], -0.013; in [15], -0.0185; in assay [16], 0.002. Also, the “combination Emax” value in [20] turned out to be 0.322.

On to `Cc1cc2ncnn2cc1Nc1ncc2c(n1)n(C1CCOCC1)c(=O)n2C` [AZD7648] + O=C(c1cc(Cc2n[nH]c(=O)c3ccccc23)ccc1F)N1CCN(C(=O)C2CC2)CC1 [Olaparib] (first compound max 10 µM, 7x7, partner max 10 µM), for which the Bliss excess in [18] was -0.0339; in assay [1], 0.0015; in assay [2], -0.034; in [3], -0.0554; in assay [4], -0.0416; in [5], -0.0519. In addition, the Bliss excess in assay [6] is -0.0518; in [7], -0.0507; in assay [9], -0.0593; in assay [10] it was -0.0372; in assay [11] it was -0.0892; in assay [12], -0.0688. Further, the Bliss excess was -0.0684 in [19]; -0.0364 in [13]; 0.0384 in [14]; 0.0001 in assay [15]; -0.0363 in assay [16]. Moreover, the “combination Emax” value in assay [20] is 0.0825.

For `COc1cc2c(cc1OCCCCCOc1cc3c(cc1OC)C(=O)N1C=C(C)C[C@H]1C=N3)N=C[C@@H]1CC(C)=CN1C2=O` [SG3199] + O=C(c1cc(Cc2n[nH]c(=O)c3ccccc23)ccc1F)N1CCN(C(=O)C2CC2)CC1 [Olaparib] (first compound max 0.001 µM, 7x7, partner max 10 µM), the Bliss excess in [18] was -0.0304; in assay [1], -0.0102; in [2] it was -0.0371; in assay [3], -0.0152; in assay [4], -0.0226; in [5], -0.0443. Also, the Bliss excess in [6] is -0.0306; in assay [7], -0.0464; in [9], -0.0432; in [10], -0.0297; in assay [11], -0.0562; in assay [12] it was -0.0653. In addition, the Bliss excess in [19] was -0.0773; in assay [13], -0.0461; in assay [14], 0.0755; in assay [15], -0.0114; in [16], -0.0322. Also, in assay [20], the “combination Emax” value was 0.0596.
